The source of these data is publication PMC6798786 (Brain Communications, 2019).

Structures are written as SMILES. Counter-ions that a name gives are not always drawn. Like-named read-outs stand apart in the source and are kept apart here.

Data set [1] deals with T1, human 5-HT2CR (Homo sapiens, UniProt P28335).
T1 sequence (P28335 33-458): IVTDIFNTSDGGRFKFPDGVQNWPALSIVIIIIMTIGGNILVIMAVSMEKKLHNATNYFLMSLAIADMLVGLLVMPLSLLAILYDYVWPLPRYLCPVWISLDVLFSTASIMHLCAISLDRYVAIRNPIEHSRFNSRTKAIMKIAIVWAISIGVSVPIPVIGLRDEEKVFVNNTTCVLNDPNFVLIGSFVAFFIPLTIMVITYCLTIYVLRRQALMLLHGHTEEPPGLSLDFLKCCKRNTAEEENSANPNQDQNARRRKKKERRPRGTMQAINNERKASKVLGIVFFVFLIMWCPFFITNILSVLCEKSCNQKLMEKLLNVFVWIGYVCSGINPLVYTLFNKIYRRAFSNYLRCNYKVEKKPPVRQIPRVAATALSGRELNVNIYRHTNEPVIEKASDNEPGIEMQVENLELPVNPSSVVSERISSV
As to the kind of experiment: radioligand binding (NIMH PDSP). How it is done:
(§1) All in vitro binding assay and Ki data studies were performed by the US National Institute of Mental Health Psychoactive Drug Screening Program (NIMH PDSP). For these studies, drugs were screened against recombinant, stably expressed human 5-HT2AR, 5-HT2BR, 5-HT2CR and H1, as described at https://pdspdb.unc.edu/pdspWeb/ ([Besnard et al., 2012]).

The target of the next data set is human 5-HT2AR (Homo sapiens, UniProt P28223). Kind of data set: radioligand binding (NIMH PDSP). How it is done:
as §1

For another data set, the target named is human 5-HT2BR (Homo sapiens, UniProt P41595). As to the kind of experiment: radioligand binding (NIMH PDSP). The following applies: read-out: Ki 5-HT2BR. How it is done: as §1
Chain of human 5-HT2BR (P41595 whole entry): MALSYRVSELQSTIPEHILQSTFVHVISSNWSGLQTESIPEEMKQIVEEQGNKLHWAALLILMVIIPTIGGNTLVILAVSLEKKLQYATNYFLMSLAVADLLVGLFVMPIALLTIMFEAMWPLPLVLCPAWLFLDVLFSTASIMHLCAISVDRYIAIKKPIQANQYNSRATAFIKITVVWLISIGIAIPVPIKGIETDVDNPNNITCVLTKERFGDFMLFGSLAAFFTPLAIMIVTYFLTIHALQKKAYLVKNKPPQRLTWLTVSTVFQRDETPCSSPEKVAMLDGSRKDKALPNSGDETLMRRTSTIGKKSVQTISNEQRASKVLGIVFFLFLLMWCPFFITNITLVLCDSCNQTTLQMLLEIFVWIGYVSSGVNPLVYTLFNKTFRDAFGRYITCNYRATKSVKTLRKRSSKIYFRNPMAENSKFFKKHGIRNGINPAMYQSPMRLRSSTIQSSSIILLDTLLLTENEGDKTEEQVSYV
A further data set addresses human H1 (Homo sapiens, UniProt P35367). As to the kind of experiment: radioligand binding (NIMH PDSP). The following applies: read-out: Ki H1. How it is done:
as §1

The subject of the next data set is scn1lab mutant zebrafish. As to the kind of experiment: locomotion (mean swim velocity) seizure-like behaviour assay in scn1lab mutant zebrafish larvae. Format: in vivo, Danio rerio. The note with it: for effect on seizure-like swim behaviour, initial library screen: 100 µM or 250 µM, UCSF-synthesized compound; for effect on seizure-like swim behaviour, retest of independently synthesized compound: 10, 50, 100 and 250 µM; for effect on seizure-like swim behaviour, retest of independently synthesized compound / effect on seizure-like swim behaviour, commercially available compounds: 30 and 90 min exposure; for effect on seizure-like swim behaviour, commercially available compounds: three concentrations; for change in vivo at 100 µM / change in vivo at 250 µM: Danio rerio. How it is done:
(§2) For locomotion studies, zebrafish larvae (5 days post-fertilization) were placed into a single well of a clear flat-bottomed 96-well microplate containing embryo media. Sex determination is not possible at this stage of development. All drug screening experiments were conducted in an unbiased manner by investigators blinded to the test compounds and all files coded for post hoc analysis. The 96-well plate containing larvae was then placed inside a DanioVision box where they were allowed to acclimate (20 min; room temperature). EthoVision XT software (DanioVision, Noldus Information Technology) was used to obtain locomotion plots (10 min in duration). Seizure scoring was performed, as described ([Baraban et al., 2005]). All locomotion plots were analysed for distance travelled (in millimetres) and mean velocity (in millimetres per second). After 90 min of drug exposure larvae were examined for toxic side-effects. Compounds that decreased or stopped the larva heartbeat, or reduced or eliminated the escape response when touched, were considered toxic.
For behaviour analysis, the threshold for a change in mean swim velocity ≥40% is considered significant (>1.5× SD of 250 control treated scn1lab). Unless otherwise indicated, all data in this manuscript are presented as the mean ± standard error of the mean. […] Statistically significant differences are indicated with asterisks (*P < 0.05; **P < 0.01; ***P < 0.001). […]

The test system of data set [2] is scn1lab mutant zebrafish larvae. As to the kind of experiment: toxicity check of larvae after 90 min drug exposure (heartbeat, escape response). The format is in vivo, Danio rerio. The following applies: 100 µM or 250 µM; 90 min exposure. How it is done:
as §2, with “Seizure scoring was performed, as described ([Baraban et al., 2005]).” left out

Data set [3] deals with T1, human 5-HT2CR. The following applies: commercially available compounds known to bind 5-HT2BR; ref Roth et al., 2000; read-out: 5-HT2CR (nM), Table S3; cited from earlier work.
Setting [4] is: recombinant, stably expressed human receptor, clemizole analogues.
Setting [5] is: read-out: % change in velocity, individual larva 1 (heat map).
The mark [6] stands for this setting: read-out: % change in velocity, individual larva 2 (heat map).
Setting [7] is: read-out: % change in velocity, individual larva 3 (heat map).
[8] abbreviates: read-out: % change in velocity, individual larva 4 (heat map).
The mark [9] stands for this setting: read-out: % change in velocity, individual larva 5 (heat map).
Where [10] appears, read: read-out: % change in velocity, individual larva 6 (heat map).
Setting [11] is: read-out: mean velocity change from six fish, Trial 1.
Setting [12] is: read-out: mean velocity change from six fish, Trial 2.

Chain of human 5-HT2AR (P28223 whole entry): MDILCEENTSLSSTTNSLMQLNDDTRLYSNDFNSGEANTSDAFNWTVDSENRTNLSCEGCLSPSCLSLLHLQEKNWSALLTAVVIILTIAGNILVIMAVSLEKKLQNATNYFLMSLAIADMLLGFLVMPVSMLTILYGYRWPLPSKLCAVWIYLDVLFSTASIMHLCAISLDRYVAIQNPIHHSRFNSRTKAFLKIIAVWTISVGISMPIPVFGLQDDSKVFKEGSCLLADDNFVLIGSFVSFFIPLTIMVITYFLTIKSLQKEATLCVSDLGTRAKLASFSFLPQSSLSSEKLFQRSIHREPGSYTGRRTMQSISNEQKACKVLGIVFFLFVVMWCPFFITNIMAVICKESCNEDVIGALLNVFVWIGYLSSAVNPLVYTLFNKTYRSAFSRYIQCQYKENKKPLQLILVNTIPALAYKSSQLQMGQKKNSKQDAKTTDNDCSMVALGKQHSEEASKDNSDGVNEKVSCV
Chain of human H1 (P35367 whole entry): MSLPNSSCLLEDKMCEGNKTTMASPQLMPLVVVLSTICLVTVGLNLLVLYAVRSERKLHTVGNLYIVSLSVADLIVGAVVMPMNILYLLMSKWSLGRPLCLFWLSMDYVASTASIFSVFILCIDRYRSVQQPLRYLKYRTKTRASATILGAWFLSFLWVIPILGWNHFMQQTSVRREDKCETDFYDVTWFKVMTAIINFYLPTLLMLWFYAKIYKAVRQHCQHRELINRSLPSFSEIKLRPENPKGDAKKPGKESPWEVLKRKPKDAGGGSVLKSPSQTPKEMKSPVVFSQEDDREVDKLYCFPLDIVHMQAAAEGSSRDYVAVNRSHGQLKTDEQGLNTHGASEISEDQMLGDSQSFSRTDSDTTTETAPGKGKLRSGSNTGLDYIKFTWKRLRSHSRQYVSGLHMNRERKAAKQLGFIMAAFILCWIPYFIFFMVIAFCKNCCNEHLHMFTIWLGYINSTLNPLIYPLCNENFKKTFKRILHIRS

With `Clc1ccc(Cn2c(CN3CCSC3)nc3ccccc32)cc1` [Compound 28], the Ki on human 5-HT2CR [1] (setting [4]) was 1080 nM; on human 5-HT2AR (setting [4]) it was greater than 10000 nM; on human 5-HT2BR (setting [4]), 464 nM; at human H1 (setting [4]), 44 nM.
With `CCCn1c(CN2CCCC2)nc2ccccc21.O=CO` [Compound 5], the “effect on seizure-like swim behaviour, initial library screen” value with scn1lab mutant zebrafish is reported as “no significant effect on swim behaviour”. For the same compound, the “effect on seizure-like swim behaviour, retest of independently synthesized compound” value with scn1lab mutant zebrafish is recorded as “no significant effect on the swim behaviour”. Also, the Ki at human 5-HT2CR [1] (setting [4]) is greater than 10000 nM; on human 5-HT2AR (setting [4]), greater than 10000 nM; at human 5-HT2BR (setting [4]), 219 nM; at human H1 (setting [4]), 362 nM.
Consider `CN1CCc2cccc3c2[C@H]1Cc1ccc(O)c(O)c1-3` [apomorphine, (−)-Apomorphine hydrochloride, reference compound], for which the “effect on seizure-like swim behaviour, commercially available compounds” value (shortened to “effect … commercially available compounds”) in the data set with scn1lab mutant zebrafish is reported as “significantly increased mean swim velocity”.
Turning to `Clc1ccc(Cn2c(CN3CCCCC3)nc3ccccc32)cc1` [Compound 22], in data set [2], the “toxicity in initial analogue screening” value is given as “toxic”. Also, the Ki on human 5-HT2CR [1] (setting [4]) was determined as 4580 nM; on human 5-HT2AR (setting [4]), 623 nM; on human 5-HT2BR (setting [4]), 306 nM; at human H1 (setting [4]), 8.5 nM.
Turning to `Nc1ccc(Cn2c(CN3CCCC3)nc3ccccc32)cc1` [Compound 14], the “effect on seizure-like swim behaviour, initial library screen” value in the data set on scn1lab mutant zebrafish is recorded as “no significant effect on swim behaviour”. Moreover, the “effect on seizure-like swim behaviour, retest of independently synthesized compound” value with scn1lab mutant zebrafish is listed as “no significant effect on the swim behaviour”. Moreover, the Ki on human 5-HT2CR [1] (setting [4]) was greater than 10000 nM; at human 5-HT2AR (setting [4]) it was greater than 10000 nM; at human 5-HT2BR (setting [4]) it was 606 nM; at human H1 (setting [4]) it was 27 nM.
Regarding `Cl.Clc1cccc(N2CCNCC2)c1` [m-CPP, reference compound], the “effect … commercially available compounds” value in the data set on scn1lab mutant zebrafish is “biphasic response”.
With `Clc1ccc(Cn2c(CN3CCOCC3)nc3ccccc32)cc1` [Compound 23], the “toxicity in initial analogue screening” value in data set [2] is on record as “toxic”. Also, the Ki at human 5-HT2CR [1] (setting [4]) was greater than 10000 nM; at human 5-HT2AR (setting [4]), greater than 10000 nM; at human 5-HT2BR (setting [4]), 515 nM; on human H1 (setting [4]) it was 34 nM.
For `c1ccc(Cn2c(CN3CCCC3)nc3ccccc32)cc1` [Compound 3], the Ki at human 5-HT2CR [1] (setting [4]) was found to be 292 nM; at human 5-HT2AR (setting [4]), 327 nM; at human 5-HT2BR (setting [4]) it was 83 nM; at human H1 (setting [4]) it was 4.8 nM.
As for `FC1(F)CCN(Cc2nc3ccccc3n2Cc2ccc(Cl)cc2)CC1` [Compound 27], the “toxicity in initial analogue screening” value in data set [2] is “toxic”. Further, the Ki on human 5-HT2CR [1] (setting [4]) was 7150 nM; on human 5-HT2AR (setting [4]), greater than 10000 nM; at human 5-HT2BR (setting [4]) it was greater than 10000 nM; on human H1 (setting [4]), 442 nM.
With `CC(N)Cc1c[nH]c2ccc(OCc3cccs3)cc12` (centres unmarked) [reference compound], the “effect … commercially available compounds” value in the data set on scn1lab mutant zebrafish is reported as “failed to reach our significance threshold”. Also, the Ki at human 5-HT2CR [3] is 115 nM.
For the compound `Clc1ccc(Cn2c(CN3CCCC3)cc3ccccc32)cc1` [Compound 11], the change in vivo at 100 µM in the data set on scn1lab mutant zebrafish (setting [5]) is 39.3%; in the data set with scn1lab mutant zebrafish (setting [6]), 403%; in the data set with scn1lab mutant zebrafish (setting [7]) it was 91.2%; in the data set on scn1lab mutant zebrafish (setting [8]), 120%; with scn1lab mutant zebrafish (setting [9]) it was 149%; in the data set with scn1lab mutant zebrafish (setting [10]), 66.8%. In addition, the change in vivo at 100 µM with scn1lab mutant zebrafish (setting [11]) and with scn1lab mutant zebrafish (setting [12]) was 124% each time. For the same compound, the change in vivo at 250 µM in the data set with scn1lab mutant zebrafish (setting [5]), in the data set with scn1lab mutant zebrafish (setting [6]), in the data set with scn1lab mutant zebrafish (setting [7]), in the data set on scn1lab mutant zebrafish (setting [8]), in the data set with scn1lab mutant zebrafish (setting [9]) and with scn1lab mutant zebrafish (setting [10]) was -100% in each case. Moreover, the change in vivo at 250 µM in the data set with scn1lab mutant zebrafish (setting [11]) was -100%. Moreover, the Ki is 248 nM on human 5-HT2CR [1], 631 nM on human 5-HT2AR, 134 nM on human 5-HT2BR and 6.4 nM on human H1.
For the compound `Clc1ccc(Cn2c(CC3CCCC3)nc3ccccc32)cc1` [Compound 1], the change in vivo at 100 µM in the data set on scn1lab mutant zebrafish (setting [5]), in the data set with scn1lab mutant zebrafish (setting [6]), in the data set with scn1lab mutant zebrafish (setting [7]), in the data set on scn1lab mutant zebrafish (setting [8]), in the data set with scn1lab mutant zebrafish (setting [9]) and with scn1lab mutant zebrafish (setting [10]) was -100% throughout. For the same compound, the change in vivo at 100 µM with scn1lab mutant zebrafish (setting [11]) and in the data set on scn1lab mutant zebrafish (setting [12]) was -100% each time. The change in vivo at 250 µM is -100% in the data set with scn1lab mutant zebrafish (setting [5]); -60% with scn1lab mutant zebrafish (setting [6]); -100% in the data set on scn1lab mutant zebrafish (setting [7]); -100% in the data set on scn1lab mutant zebrafish (setting [8]); -100% in the data set on scn1lab mutant zebrafish (setting [9]); -100% with scn1lab mutant zebrafish (setting [10]). Moreover, the change in vivo at 250 µM in the data set on scn1lab mutant zebrafish (setting [11]) is -96.2%. Also, the “toxicity in initial analogue screening” value in data set [2] is “toxic”. Besides, the results for the Ki at human 5-HT2CR [1] and on human 5-HT2BR were 2730 nM and 501 nM, respectively.
For `CC(C)C[C@H]1C(=O)N2CCC[C@H]2[C@]2(O)O[C@](NC(=O)[C@@H]3C=C4c5cccc6[nH]c(Br)c(c56)C[C@H]4N(C)C3)(C(C)C)C(=O)N12` [bromocriptine, Bromocriptine mesylate, reference compound], the “effect on seizure-like swim behaviour at 10 µM” value in the data set with scn1lab mutant zebrafish (10 µM) is recorded as “significantly reduced seizure-like swim behaviour”.
As for `CN1CCN(Cc2nc3ccccc3n2Cc2ccc(Cl)cc2)CC1` [Compound 26], the Ki at human 5-HT2CR [1] (setting [4]) turned out to be 313 nM; at human 5-HT2AR (setting [4]), 316 nM; at human 5-HT2BR (setting [4]) it was 20 nM; on human H1 (setting [4]), 1.2 nM.
For the compound `O=C(c1nc2ccccc2n1Cc1ccc(Cl)cc1)N1CCCC1` [Compound 2], the change in vivo at 100 µM is -68.2% in the data set on scn1lab mutant zebrafish (setting [5]); -100% in the data set on scn1lab mutant zebrafish (setting [6]); -100% in the data set on scn1lab mutant zebrafish (setting [7]); -100% with scn1lab mutant zebrafish (setting [8]); -100% in the data set on scn1lab mutant zebrafish (setting [9]); -100% in the data set with scn1lab mutant zebrafish (setting [10]). Besides, the change in vivo at 100 µM with scn1lab mutant zebrafish (setting [11]) and with scn1lab mutant zebrafish (setting [12]) was -97.2% in each case. The change in vivo at 250 µM in the data set with scn1lab mutant zebrafish (setting [5]), with scn1lab mutant zebrafish (setting [6]), in the data set on scn1lab mutant zebrafish (setting [7]), in the data set with scn1lab mutant zebrafish (setting [8]), with scn1lab mutant zebrafish (setting [9]) and in the data set on scn1lab mutant zebrafish (setting [10]) was -100% each time. Also, the change in vivo at 250 µM in the data set on scn1lab mutant zebrafish (setting [11]) was -100%. Moreover, the “toxicity in initial analogue screening” value in data set [2] was “toxic”.
Consider `Fc1ccc(Cn2c(CN3CCCC3)nc3ccccc32)cc1` [Compound 7], for which the Ki at human 5-HT2CR [1] (setting [4]) stood at 345 nM; on human 5-HT2AR (setting [4]) it was 15 nM; on human 5-HT2BR (setting [4]) it was 46 nM; on human H1 (setting [4]) it was 1 nM.
